O=C(NC[C@H]1CN(c2ccc(N3CCOCC3=O)cc2)C(=O)O1)c1ccc(Cl)s1
solubility (mole fraction)
Conditions	283.15 K	288.15 K	293.15 K	298.15 K	303.15 K	308.15 K
in dichloromethane	0.000254	0.00028	0.000308	0.000338	0.00037	0.000403
in ethanol	1.21e-05	1.46e-05	1.75e-05	2.09e-05	2.5e-05	2.94e-05
in methanol	2.41e-05	2.97e-05	3.63e-05	4.42e-05	5.29e-05	6.36e-05
in n-butanol	5.56e-06	7.84e-06	1.08e-05	1.48e-05	2.01e-05	2.73e-05
in n-propanol	7.99e-06	1.05e-05	1.37e-05	1.77e-05	2.26e-05	2.88e-05

Reference: BigSolDB 2.1
